The values below are quoted from earlier work in US20260027125A1, “AN ANTIBACTERIAL PARENTERAL FORMULATION AND METHODS THEREOF” (BUGWORKS RESEARCH INDIA PVT. LTD., priority 2022, published 2026).

The conditions of this data set: counter ion selected for salt screening; cited from earlier work.

Regarding `O=C(O)CC(O)C(=O)O` (stereo not shown) [malic acid], the “pKa (second value)” value is 3.4, 5.11.
